| Structure (SMILES) | melting point [°C] |
| --- | --- |
| N#Cc1ccc(NCc2ccccc2)nc1 | 133 to 134 |
| O=C(Nc1ccc(N2CCN(Cc3ccccc3)CC2)cc1)c1ccccc1-c1ccccc1 | 162 |
| CCOC(=O)C(=CNC1CC1)C(=O)c1cc(F)c(F)cc1Cl | 55 to 58 |
| CCC(=O)COc1nn(CC(=O)CC)c(-c2ccc(F)cc2)c1-c1ccc(S(C)(=O)=O)cc1 | 56 to 58 |
| COC(=O)c1cc2c(cn1)[nH]c1ccc(Oc3ccc([N+](=O)[O-])cn3)cc12 | 150 to 155 |
| CCc1cccc(CC)c1NC(=O)C1c2ccccc2COc2c(C)ccc(C)c21 (stereo unspecified) | 104 to 106 |
| COC(=O)C(=Cc1ccc(OC)c(OC)c1)NC(=O)c1ccccc1 | 135 to 137 |
| NC(N)=NC(=O)Cn1c(Cl)c(Cl)c(Cl)c1Cl | 215 to 217 |
| CSc1ncc(Cc2ccccn2)c(=O)[nH]1 | 195 to 198 |
| COc1ccc(-c2noc3c2C(c2ccc(OC)c(O)c2)C2=C(COC2=O)N3)cc1 (stereo unspecified) | 219 to 221 |
| COc1cc(S(C)=O)ccc1-c1nc2ccc(C(C)(C)CNS(C)(=O)=O)cc2[nH]1 (stereo unspecified) | 126 to 128 |
| COc1ccc(-c2n[nH]c3c2C(O)c2ccccc2-3)cc1OC (stereo unspecified) | 197 to 199 |
| CCCN1CCN(c2nc(C)c(C(=O)NCc3cccnc3)s2)C1=O | 109 to 111 |
| CCCCCCCCCCCC#Cc1ccccc1C=CP(=O)(O)O | 82 to 83 |
| Cc1cc2nccn2nc1OCC(C)(C)CCS(N)(=O)=O | 161 to 162 |
| CSc1ncnc2c(N(C)C3CCCCC3)nc(Cl)nc12 | 135 to 137 |
| CCCN(CCC)CCCC1CCN(CCNC(=O)N2c3ccccc3C(=O)Nc3cccnc32)CC1 | 169 to 170 |
| CCOP(=O)(Cc1ccc(NC(=O)CCc2c(C)noc2-c2ccccc2)cc1)OCC | 114 to 115 |
| CCNc1nc2ccc(CCc3ncc[nH]3)cc2o1 | 204 to 206 |
| NNC(=O)c1ccc2[nH]nnc2c1 | 295 to 296 |
| Cc1oc(-c2ccc(C(C)C)cc2)nc1CCOc1ccc(C[C@H](OCC(F)(F)F)C(=O)O)c2sccc12 | 181 to 182 |
| CCCN(CCC)C1Cc2c[nH]c3ccc(C(=O)C(C)(C)C)c(c23)C1 (stereo unspecified) | 92 |
| Cc1c(-c2ccccc2)oc2c(CSCCCl)cccc2c1=O | 82 to 83 |
| OC(CNc1ccc(Cl)cc1)Cn1ccnc1 (stereo unspecified) | 123 to 125 |
| COc1coc2cc(NS(C)(=O)=O)c(Oc3ccccc3)cc2c1=O | 164 to 166 |
| CCOC(=O)c1ccc(-n2ccc(=O)cc2)cc1 | 178 to 180 |
| COCOc1ccc(C(=O)COc2cc(OCc3ccccc3)ccc2CO)c(OCc2ccccc2)c1 | 115 to 118 |
| CC1c2ccccc2-c2ccccc2N1S(=O)(=O)c1ccc(O)c(CO)c1 (stereo unspecified) | 182 to 184 |

| Structure (SMILES) | melting point [°C] |
| --- | --- |
| CC(C)(C)c1cc(C(=O)Nc2ccccc2NC(=O)NCC(c2ccccc2)c2ccccc2)cc(C(C)(C)C)c1O | 198 to 200 |
| CCN(CC)c1ccc(C2(N(c3ccccc3)c3ccc(N(C)C)cc3)OC(=O)c3ccccc32)c(C)c1 (stereo unspecified) | 154 to 156 |
| Cc1cc(C(O)(C=Cc2ccc(Cl)cc2)C(F)(F)F)ccc1NC(=O)c1cccc(I)c1C(=O)NC(C)C (stereo unspecified) | 65 to 75 |
| O=C(Oc1cc([N+](=O)[O-])c(F)cc1Cl)Oc1cc([N+](=O)[O-])c(F)cc1Cl | 165 to 166 |
| CSC(=S)Nc1ccc2c(c1)OCO2 | 114 to 115 |
| COc1ccc(/C=C/C(=O)C#CC(=O)O)cc1 | 98 to 100 |
| O=C(O)c1cn2c3c(cc(F)cc3c1=O)C1CCCCC12 (stereo unspecified) | 281 to 282 |
| CCC(=O)OC1=C(CCCCCCCCC[Si](C)(C)C)C(=O)c2ccccc2C1=O | 41 to 43 |
| CN(C)CCc1c[nH]c2ccc(C(N)=S)cc12 | 155 |
| CC(=O)OCCCn1c(NC(=O)c2cccs2)nc2cc(C(=O)N(C)C3CCCCC3)ccc21 | 74 to 76 |
| N#Cc1cccc(Cn2cnc(C(N)=O)c2N)c1 | 246 to 247 |
| COCC1(C)CC(n2ccccc2=O)c2cc(C(N)=O)ccc2O1 (stereo unspecified) | 177 to 179 |
| CCCOc1cc(C(=O)O)cc([N+](=O)[O-])c1-c1ccccc1 | 142 to 144 |
| NC(=O)C1CCc2[nH]c3cc(Cl)c(Cl)cc3c2C1 (stereo unspecified) | 199 to 200 |
| COc1ccc2[nH]c(=O)cc(C)c2c1 | 270 to 273 |
| Cn1cncc1C(O)(c1ccc(CO)cc1)c1ccc2c(c1)c(-c1cccc(Cl)c1)cc(=O)n2C (stereo unspecified) | 273 |
| Cc1c(C(F)(F)F)nn(C(C)C)c1O | 150 to 153 |
| O=C(O)CCCCCOc1ccccc1OCc1ccccc1 | 77 to 78 |
| CCOC(=O)c1ccc2[nH]ccc2c1 | 94 to 95 |
| O=Cc1ccc(-c2ncn(-c3ccc(OC(F)(F)F)cc3)n2)cc1 | 137 to 140 |
| CCCCCCCCCCCCCCCCCCOC(=O)c1cc(C(=O)OCCCCCCCCCCCCCCCCCC)c(C(=O)O)cc1C(=O)O | 133 to 137 |
| N#Cc1ccc(CN(N)c2ccc(Br)cc2)cc1 | 114 |
| COc1c(Cc2ccccc2)cc(C(=O)c2cccs2)c2ccccc12 | 111 to 113 |
| CCn1c(=O)c2c(nc(/C=C/c3ccc4c(c3)OCO4)n2C)n(CC)c1=O | 219 to 220 |
| COc1ccc2[nH]c3cnc4c(c3c2c1)C(=O)CC(C)(C)C4 | 230 to 231 |
| CC(C)(C)OC(=O)N[C@H](Cc1ccc(Cl)c(Cl)c1)C(=O)N1CCC[C@H]1C(=O)NC1CCc2nc(N)ncc2C1 (stereo partly specified) | 114 to 117 |
| CCCCC[C@H](O)c1ccc(Br)cc1 | 70 to 71 |

Next, values leading:

| melting point [°C] | Structure (SMILES) |
| --- | --- |
| 190 | CC1(NC(=O)CN2C(=O)c3ccccc3C2=O)CCCCCC1 |
| 141 to 143 | CC(=NOCCOc1ccc(C[C@H](Oc2ccc(C(C)(C)C)cc2)C(=O)O)cc1)c1ccc(-c2ccccc2)cc1 |
| 142 to 143 | CCc1cc(CC)c(-c2c(OCS(C)(=O)=O)c(C)nn(C)c2=O)c(CC)c1 |
| 118 to 120 | CC(C)N1Cc2cc(S(C)(=O)=O)ccc2N(CCN2CC=C(c3c[nH]c4cc(F)ccc34)CC2)S1(=O)=O |
| 393 to 395 | O=c1c2ccc(Cl)cc2[nH]c2c(=O)n(-c3ccc(O)cc3)nc(O)c12 |
| 185 | Cc1nc2c(o1)CCc1ccccc1C2=Cc1cccc(NS(C)(=O)=O)c1 |
| 178 | Cc1ccc(-c2ccc3c(c2)CC[C@H]2N(C)C(=O)CC[C@]32C)cc1 |
| 201 to 203 | CC(C)C1(C)N=C(c2nc(O)ccc2C(=O)O)NC1=O (stereo unspecified) |
| 266 to 268 | O=C(O)c1ccc(=O)n(CCNC(=O)c2ccccn2)c1 |
| 101 to 103 | Clc1cccc(N2CCN(CCCCOc3ccc4cn[nH]c4c3)CC2)c1Cl |
| 173 | CCOCCOCCn1ccc2c3c(c(-c4ccccc4Cl)cc21)C(=O)NC3=O |
| 198 to 200 | COc1ccc(C(=O)Nc2ccccc2)cc1NS(=O)(=O)c1ccc(F)cc1F |
| 161 to 164 | C=CCn1c(=O)c(C(=O)OCC)c(N)c2cccnc21 |
| 229 | CCCc1ccc(OC)c(-c2csc(NC(=O)NN3CCN(CCCN4CCOCC4)CC3)n2)c1 |
| 102 | O=C1c2cccc(N3CCCC3)c2OC12CC2 |
| 160 to 161 | COc1ccc2c(c1)c(CN(O)C(C)=O)c(C)n2C(=O)c1ccc(Cl)cc1 |
| 99 to 105 | CN(CCNC(=O)NCCCOc1cccc(CN2CCCCC2)c1)CCC(c1ccc(Cl)cc1)c1ccccn1 (stereo unspecified) |
| 249 | O=C1c2ccccc2C(=O)c2sc(-c3ccccc3)nc21 |
| 167 to 168 | Cn1cc(CC(=O)O)c2cc(-c3ccc(C(F)(F)F)cc3)ccc21 |
| 175 to 177 | CCOc1cc(C(=CC#N)c2ccc(NC(C)=O)cc2)ccc1OC |
| 146 to 147 | CN1CCC(C2(O)CC(c3ccc(F)cc3)c3ccc(F)cc32)CC1 (stereo unspecified) |
| 138 to 139 | CCCC(=O)n1nc2c(c1NC)c(=O)n(CCC)c(=O)n2Cc1ccccc1 |
| 96 to 98 | CCCCC1=CC(O)(C(Br)Br)N(c2ccccc2)C1=O (stereo unspecified) |

| melting point [°C] | Structure (SMILES) |
| --- | --- |
| 211 to 212 | Cc1nc(/C=C/c2cn(-c3ccccc3)nc2O)cs1 |
| 129 | CNn1c(N(C)C)n[nH]c1=O |
| 95 to 96 | CC(C)C[C@H](N)[C@@H](O)CCSCCc1ccccc1 |
| 132 to 133 | CC(C)(C)SC1CN(C(N)=O)CC1NS(=O)(=O)c1ccc(Oc2ccccc2)cc1 (stereo unspecified) |
| 140 to 142 | Cc1nc(N2CCN(Cc3ccccc3)C2=N)sc1C(=O)NCc1ccc(F)c(F)c1 |
| 275 to 278 | CCOC(=O)c1c[nH]c2nc(NCc3ccccc3)nn2c1=O |
| 61 to 63 | O=C(O)Cc1ccc(Oc2cccc(C(F)(F)F)c2)cc1 |
| 15 to 20 | CCCN(CCC)C(=O)n1cnc(S(=O)C(C)C)n1 (stereo unspecified) |
| 125 to 128 | Cc1cccc2c1C(=O)CC2=O |
| 252 | COc1cc(C2=C(c3cc4ccccc4[nH]3)C(=O)NC2=O)cc(OC)c1OC |
| 179 | CCS(=O)(=O)N(C(C)=O)c1cc(-n2nc(C(F)(F)F)n(C)c2=O)c(F)cc1C#N |
| 119 to 121 | CS(=O)(=O)N[C@@H]1CCCC[C@H]1OCC(=O)O (relative stereo) |
| 144 to 147 | Cc1cc(C)n(-c2nccc(NC3CCCCC3)n2)n1 |
| 137 to 140 | CCCCc1nn(-c2cc(NC(=O)CC)ccc2Cl)c(=O)n1Cc1ccc(-c2ccccc2S(=O)(=O)NC(=O)OC(C)(C)C)cc1F |
| 86 to 88 | CCOC(=O)CS(=O)(=O)N(Cc1ccc(Cl)cc1)c1ccccc1CC(=O)OC |
| 134 to 136 | COc1cn2nc(Cl)ccc2n1 |
| 89 to 90 | CCOC(=O)c1c(CC)nn2ccc3oc(C)cc3c12 |
| 132 to 138 | CC(=O)N(c1ccccn1)c1ncc(Br)s1 |
| 193 to 194 | CCC1(CC)OC(=O)Nc2ccc(-c3cccc([N+](=O)[O-])c3)cc21 |
| 116 to 118 | CC1CCC2=NNC(=O)CC2C1 (stereo unspecified) |
| 102 to 103 | CCCOc1cccc(CO)c1-c1ccc(OC)cc1O |
| 94 to 95 | Cc1c(-c2ccccc2)oc2c(C(=O)NCCCN3CCN(c4cccc5c4OCC5)CC3)cccc2c1=O |
| 201 to 203 | CCOC(=O)c1cn(-c2nncs2)c2nc(Cl)c(F)cc2c1=O |

From a melting point compilation (Tetko et al.; mined from patent text by program, amines drawn as free bases though some values may be those of a salt)
